The source of these data is ChEMBL document CHEMBL5465560, “Selectivity Literature for EUbOPEN Chemogenomic Library” (2024).

For test [1], the target named is Serine/threonine-protein kinase PRP4 homolog (Homo sapiens) (UniProt Q13523). Nature of the test: Selectivity interaction (KinomeScan (DiscoverX)) EUB0000666a PRPF4B. As to conditions: at 10 µM.
In test [2] the target is T1, Phosphatidylinositol 5-phosphate 4-kinase type-2 gamma (Homo sapiens) (UniProt Q8TBX8).
T1 sequence (whole entry): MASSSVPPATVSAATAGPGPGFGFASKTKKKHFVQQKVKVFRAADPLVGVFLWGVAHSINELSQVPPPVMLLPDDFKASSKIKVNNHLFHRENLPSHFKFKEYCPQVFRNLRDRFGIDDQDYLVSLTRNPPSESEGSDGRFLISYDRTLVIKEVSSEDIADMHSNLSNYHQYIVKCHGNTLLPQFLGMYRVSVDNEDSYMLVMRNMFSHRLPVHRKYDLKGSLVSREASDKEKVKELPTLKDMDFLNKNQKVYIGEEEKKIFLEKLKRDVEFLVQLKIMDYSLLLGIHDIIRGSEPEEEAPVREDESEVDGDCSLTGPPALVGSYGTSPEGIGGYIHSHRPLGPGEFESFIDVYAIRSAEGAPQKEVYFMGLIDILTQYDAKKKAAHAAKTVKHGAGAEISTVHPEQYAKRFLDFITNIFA
The test can be described thus: Selectivity interaction (KinomeScan (DiscoverX)) EUB0000666a PIP4K2C. As to conditions: at 10 µM.

For test [3], the target named is Dual specificity protein kinase CLK2 (Homo sapiens, UniProt P49760). Nature of the test: Selectivity interaction (KinomeScan (DiscoverX)) EUB0001079a CLK2. The settings on record: at 1 µM.
Chain of Dual specificity protein kinase CLK2 (P49760 whole entry, looked up): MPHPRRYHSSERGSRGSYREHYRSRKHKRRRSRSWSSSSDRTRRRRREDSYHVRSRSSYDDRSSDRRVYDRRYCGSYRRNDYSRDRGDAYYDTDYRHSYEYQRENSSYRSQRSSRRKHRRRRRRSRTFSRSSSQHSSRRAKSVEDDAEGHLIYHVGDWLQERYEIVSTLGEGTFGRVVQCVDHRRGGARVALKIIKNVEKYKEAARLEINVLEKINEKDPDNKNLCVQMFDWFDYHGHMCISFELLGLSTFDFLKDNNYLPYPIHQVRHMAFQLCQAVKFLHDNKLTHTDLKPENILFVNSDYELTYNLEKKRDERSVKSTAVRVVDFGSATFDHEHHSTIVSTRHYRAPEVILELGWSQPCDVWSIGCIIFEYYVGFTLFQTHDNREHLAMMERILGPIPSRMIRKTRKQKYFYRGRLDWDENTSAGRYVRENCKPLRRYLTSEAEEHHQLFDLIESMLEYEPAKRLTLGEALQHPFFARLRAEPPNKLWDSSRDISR
The test system of test [4] is Serine/threonine-protein kinase B-raf (Homo sapiens), P15056 [V600E]. The test can be described thus: (§1) Selectivity interaction (KinomeScan (DiscoverX)) EUB0001619a BRAF. The settings on record: at 1 µM.
Chain of Serine/threonine-protein kinase B-raf (Homo sapiens), P15056 [V600E] (P15056 whole entry V600E): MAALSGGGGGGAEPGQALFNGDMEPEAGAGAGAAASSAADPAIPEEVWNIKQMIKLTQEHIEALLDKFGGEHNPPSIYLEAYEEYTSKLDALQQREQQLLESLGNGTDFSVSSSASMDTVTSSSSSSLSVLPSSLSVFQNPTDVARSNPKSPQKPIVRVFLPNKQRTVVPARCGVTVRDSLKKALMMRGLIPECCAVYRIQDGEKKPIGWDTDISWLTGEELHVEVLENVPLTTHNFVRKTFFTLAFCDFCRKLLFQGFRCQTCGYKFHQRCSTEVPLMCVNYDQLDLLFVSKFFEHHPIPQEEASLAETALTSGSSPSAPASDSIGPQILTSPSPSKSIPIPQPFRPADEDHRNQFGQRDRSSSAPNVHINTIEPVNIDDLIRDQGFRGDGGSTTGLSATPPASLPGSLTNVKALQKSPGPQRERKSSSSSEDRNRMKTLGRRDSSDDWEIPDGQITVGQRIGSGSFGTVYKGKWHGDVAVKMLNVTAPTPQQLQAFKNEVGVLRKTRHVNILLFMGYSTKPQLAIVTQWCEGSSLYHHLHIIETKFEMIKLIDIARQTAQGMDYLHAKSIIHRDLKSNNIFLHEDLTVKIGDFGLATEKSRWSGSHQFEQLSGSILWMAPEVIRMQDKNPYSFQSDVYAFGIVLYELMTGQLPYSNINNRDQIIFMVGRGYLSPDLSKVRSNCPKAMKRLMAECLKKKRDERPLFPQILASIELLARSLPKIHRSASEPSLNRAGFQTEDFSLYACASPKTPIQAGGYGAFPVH
The target of test [5] is Serine/threonine-protein kinase B-raf (Homo sapiens) (UniProt P15056). Described as §1. The settings on record: at 1 µM.
Chain of Serine/threonine-protein kinase B-raf (Homo sapiens) (P15056 whole entry): as the sequence (P15056 whole entry V600E) above, with E600V counted along it
The target in test [6] is Progesterone receptor (Homo sapiens, UniProt P06401). The test can be described thus: Selectivity interaction (Progesteron receptor agonist/antagonist FRET assay, human recombinant) EUB0000877a PGR.
Chain of Progesterone receptor (P06401 whole entry): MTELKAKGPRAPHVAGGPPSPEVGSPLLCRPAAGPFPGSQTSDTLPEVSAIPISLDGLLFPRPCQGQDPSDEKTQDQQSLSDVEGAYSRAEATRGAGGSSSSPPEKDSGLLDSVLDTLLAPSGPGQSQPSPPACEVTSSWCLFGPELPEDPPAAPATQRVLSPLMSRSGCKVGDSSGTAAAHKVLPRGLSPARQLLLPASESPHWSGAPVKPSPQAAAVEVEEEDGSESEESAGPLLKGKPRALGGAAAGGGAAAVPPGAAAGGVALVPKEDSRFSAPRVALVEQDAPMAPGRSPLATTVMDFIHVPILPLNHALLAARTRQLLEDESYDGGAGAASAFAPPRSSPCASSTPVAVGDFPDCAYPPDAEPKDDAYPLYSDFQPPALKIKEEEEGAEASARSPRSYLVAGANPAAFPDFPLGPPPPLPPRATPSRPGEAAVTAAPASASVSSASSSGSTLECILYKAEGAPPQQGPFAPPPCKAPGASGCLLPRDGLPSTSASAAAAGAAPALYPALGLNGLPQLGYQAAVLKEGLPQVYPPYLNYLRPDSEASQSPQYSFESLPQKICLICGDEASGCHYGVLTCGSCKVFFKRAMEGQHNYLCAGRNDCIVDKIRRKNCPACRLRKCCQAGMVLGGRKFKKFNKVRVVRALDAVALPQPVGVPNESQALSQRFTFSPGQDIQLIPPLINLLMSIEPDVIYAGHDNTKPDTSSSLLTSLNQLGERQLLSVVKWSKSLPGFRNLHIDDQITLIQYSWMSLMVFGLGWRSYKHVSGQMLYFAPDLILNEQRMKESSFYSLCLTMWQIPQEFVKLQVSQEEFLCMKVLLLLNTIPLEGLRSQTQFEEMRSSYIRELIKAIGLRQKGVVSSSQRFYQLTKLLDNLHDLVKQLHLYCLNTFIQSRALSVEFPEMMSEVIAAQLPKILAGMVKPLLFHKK
Test [7] has as its target T2, SNF-related serine/threonine-protein kinase (Homo sapiens) (UniProt Q9NRH2).
T2 sequence (whole entry): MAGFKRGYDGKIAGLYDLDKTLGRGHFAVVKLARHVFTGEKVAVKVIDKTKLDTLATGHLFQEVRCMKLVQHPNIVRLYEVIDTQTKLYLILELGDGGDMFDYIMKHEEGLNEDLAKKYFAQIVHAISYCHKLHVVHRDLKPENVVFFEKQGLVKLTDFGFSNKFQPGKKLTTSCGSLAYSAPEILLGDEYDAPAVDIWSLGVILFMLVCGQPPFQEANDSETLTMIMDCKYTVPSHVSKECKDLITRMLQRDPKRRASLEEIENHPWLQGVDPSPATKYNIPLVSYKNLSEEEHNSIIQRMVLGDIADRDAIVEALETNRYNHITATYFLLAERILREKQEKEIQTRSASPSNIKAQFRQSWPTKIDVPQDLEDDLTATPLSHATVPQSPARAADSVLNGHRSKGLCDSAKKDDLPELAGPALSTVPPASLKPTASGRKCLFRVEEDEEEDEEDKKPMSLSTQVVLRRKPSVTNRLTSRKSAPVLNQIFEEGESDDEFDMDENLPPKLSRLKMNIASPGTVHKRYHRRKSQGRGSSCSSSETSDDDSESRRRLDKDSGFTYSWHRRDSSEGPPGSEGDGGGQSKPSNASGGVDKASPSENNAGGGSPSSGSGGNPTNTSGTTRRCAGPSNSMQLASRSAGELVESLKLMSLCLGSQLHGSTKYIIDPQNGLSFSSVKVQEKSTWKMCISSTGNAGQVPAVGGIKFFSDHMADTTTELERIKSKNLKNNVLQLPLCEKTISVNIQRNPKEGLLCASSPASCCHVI
Nature of the test: Selectivity interaction (ActivX KiNativ screen (kinase selectivity in THP-1 cell lysates)) EUB0000639a SNRK. It counts as subcellular. The settings on record: lysate.

The target of test [8] is Mitogen-activated protein kinase kinase kinase kinase 4 (Homo sapiens, UniProt O95819). As to conditions: at 10 µM.
Chain of Mitogen-activated protein kinase kinase kinase kinase 4 (O95819 2-1239 limits assumed): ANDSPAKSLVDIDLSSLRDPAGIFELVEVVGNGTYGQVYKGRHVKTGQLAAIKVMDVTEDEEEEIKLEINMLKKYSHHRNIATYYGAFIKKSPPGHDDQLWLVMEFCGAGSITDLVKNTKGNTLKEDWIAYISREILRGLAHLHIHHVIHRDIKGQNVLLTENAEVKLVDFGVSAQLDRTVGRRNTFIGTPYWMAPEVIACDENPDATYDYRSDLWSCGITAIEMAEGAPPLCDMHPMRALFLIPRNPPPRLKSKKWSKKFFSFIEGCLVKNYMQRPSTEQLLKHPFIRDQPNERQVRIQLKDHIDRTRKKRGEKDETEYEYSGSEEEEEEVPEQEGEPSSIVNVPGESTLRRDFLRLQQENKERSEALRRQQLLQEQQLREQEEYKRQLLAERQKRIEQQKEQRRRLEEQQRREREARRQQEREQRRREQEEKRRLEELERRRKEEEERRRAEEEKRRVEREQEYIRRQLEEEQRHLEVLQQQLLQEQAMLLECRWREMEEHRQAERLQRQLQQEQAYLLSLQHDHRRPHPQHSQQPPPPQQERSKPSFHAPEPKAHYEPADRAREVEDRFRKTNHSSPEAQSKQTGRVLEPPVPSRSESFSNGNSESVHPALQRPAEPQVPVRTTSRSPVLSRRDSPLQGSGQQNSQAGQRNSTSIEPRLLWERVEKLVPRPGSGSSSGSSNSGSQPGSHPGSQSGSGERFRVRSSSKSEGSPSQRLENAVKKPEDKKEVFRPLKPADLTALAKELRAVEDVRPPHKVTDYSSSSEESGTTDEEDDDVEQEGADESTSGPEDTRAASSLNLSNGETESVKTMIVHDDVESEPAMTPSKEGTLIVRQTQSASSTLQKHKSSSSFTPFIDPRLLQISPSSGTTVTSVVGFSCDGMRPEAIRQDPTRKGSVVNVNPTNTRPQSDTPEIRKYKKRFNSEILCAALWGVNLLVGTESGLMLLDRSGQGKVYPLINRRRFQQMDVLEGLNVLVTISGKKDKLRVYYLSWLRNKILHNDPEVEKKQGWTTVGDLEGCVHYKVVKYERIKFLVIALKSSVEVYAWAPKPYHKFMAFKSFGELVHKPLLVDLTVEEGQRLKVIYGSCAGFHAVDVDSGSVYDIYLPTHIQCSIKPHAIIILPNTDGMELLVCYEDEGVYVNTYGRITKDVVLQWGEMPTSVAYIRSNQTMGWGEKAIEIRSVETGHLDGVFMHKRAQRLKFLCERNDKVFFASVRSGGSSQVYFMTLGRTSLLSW
In test [9] the target is Serine/threonine-protein kinase Nek7 (Homo sapiens) (UniProt Q8TDX7). As to conditions: at 10 µM.
Chain of Serine/threonine-protein kinase Nek7 (Homo sapiens) (Q8TDX7 whole entry, looked up): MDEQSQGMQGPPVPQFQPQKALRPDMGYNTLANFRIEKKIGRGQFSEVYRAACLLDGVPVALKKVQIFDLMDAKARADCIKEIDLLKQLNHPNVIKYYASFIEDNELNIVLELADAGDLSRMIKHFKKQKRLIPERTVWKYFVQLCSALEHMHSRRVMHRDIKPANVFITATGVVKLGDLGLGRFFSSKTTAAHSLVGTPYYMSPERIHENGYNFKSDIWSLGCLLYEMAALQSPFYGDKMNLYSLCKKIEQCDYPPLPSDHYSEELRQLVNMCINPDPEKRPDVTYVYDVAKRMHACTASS
Test [10] concerns the target T3, Serine/threonine-protein kinase 17A (Homo sapiens) (UniProt Q9UEE5).
T3 sequence (whole entry): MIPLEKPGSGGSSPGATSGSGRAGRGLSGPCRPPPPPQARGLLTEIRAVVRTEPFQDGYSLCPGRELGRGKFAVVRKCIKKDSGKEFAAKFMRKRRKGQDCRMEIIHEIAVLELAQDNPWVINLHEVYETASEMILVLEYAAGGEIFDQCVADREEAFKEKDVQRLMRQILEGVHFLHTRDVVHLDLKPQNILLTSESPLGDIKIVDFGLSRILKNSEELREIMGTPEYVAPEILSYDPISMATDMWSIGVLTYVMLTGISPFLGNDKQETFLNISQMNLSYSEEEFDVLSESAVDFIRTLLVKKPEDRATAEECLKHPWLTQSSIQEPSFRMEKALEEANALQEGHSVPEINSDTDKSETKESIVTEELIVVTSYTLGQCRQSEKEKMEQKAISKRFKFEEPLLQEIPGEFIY
The test can be described thus: Selectivity interaction (KinomeScan (DiscoverX)) EUB0001049a STK17A. The settings on record: at 1 µM.

For test [11], the target named is T4, 3-phosphoinositide-dependent protein kinase 1 (Homo sapiens) (UniProt O15530).
T4 sequence (whole entry): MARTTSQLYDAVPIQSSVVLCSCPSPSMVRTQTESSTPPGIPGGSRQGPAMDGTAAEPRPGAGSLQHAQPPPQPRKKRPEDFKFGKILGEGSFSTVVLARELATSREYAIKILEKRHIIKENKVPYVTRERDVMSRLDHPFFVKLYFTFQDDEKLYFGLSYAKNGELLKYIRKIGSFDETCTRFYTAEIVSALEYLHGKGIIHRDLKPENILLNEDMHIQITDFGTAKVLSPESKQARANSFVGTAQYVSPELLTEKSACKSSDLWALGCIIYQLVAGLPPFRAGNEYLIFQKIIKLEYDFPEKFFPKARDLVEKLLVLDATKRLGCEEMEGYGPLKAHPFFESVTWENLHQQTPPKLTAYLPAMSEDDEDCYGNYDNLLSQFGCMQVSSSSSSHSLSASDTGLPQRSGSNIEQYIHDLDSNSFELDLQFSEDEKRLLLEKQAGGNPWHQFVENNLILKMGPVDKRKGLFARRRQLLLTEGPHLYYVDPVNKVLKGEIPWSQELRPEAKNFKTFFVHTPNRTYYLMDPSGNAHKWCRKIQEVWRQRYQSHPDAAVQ
Nature of the test: Selectivity interaction (KinomeScan (DiscoverX)) EUB0000045b PDPK1.

The target of test [12] is Glycogen synthase kinase-3 alpha (Homo sapiens, UniProt P49840). The test can be described thus: Selectivity interaction (KinomeScan (DiscoverX)) EUB0000618a GSK3A. As to conditions: at 10 µM.
Chain of Glycogen synthase kinase-3 alpha (P49840 2-483 limits assumed): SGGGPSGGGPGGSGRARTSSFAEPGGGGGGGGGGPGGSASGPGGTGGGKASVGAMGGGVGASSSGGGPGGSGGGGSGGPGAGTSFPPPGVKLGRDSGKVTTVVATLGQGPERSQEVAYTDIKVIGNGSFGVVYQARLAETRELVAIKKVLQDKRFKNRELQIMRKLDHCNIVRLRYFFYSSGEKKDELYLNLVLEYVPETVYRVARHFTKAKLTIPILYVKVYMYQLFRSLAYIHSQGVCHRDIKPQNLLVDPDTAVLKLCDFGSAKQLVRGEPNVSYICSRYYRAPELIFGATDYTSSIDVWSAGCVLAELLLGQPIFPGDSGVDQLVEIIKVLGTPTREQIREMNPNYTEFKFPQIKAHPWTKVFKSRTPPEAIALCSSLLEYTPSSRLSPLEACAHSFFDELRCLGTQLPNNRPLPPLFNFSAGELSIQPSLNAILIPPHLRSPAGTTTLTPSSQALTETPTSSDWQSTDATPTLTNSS
Test [13] has as its target Bone morphogenetic protein receptor type-1B (Homo sapiens, UniProt O00238). Nature of the test: Selectivity interaction (KinomeScan (DiscoverX)) EUB0000595a BMPR1B. As to conditions: at 10 µM.

Chain of Bone morphogenetic protein receptor type-1B (O00238 whole entry): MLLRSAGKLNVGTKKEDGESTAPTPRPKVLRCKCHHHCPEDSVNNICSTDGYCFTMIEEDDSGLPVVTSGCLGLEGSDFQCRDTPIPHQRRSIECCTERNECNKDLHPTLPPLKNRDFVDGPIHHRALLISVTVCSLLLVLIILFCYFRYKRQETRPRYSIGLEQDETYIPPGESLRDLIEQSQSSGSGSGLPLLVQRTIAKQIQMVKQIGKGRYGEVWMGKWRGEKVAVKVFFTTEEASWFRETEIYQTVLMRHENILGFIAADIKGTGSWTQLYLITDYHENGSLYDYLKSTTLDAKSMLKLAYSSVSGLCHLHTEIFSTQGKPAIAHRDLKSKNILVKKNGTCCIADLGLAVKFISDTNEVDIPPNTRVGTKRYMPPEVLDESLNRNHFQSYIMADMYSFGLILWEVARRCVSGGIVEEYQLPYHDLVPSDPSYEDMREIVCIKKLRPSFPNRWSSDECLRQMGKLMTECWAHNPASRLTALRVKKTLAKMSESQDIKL

As for `O=C(NOC[C@H](O)CO)c1ccc(F)c(F)c1Nc1ccc(I)cc1F`, the % of control in test [1] was found to be 77%; in test [2], 100%.

In test [3], `Nc1cnc(N2CCc3cc(S(=O)(=O)Nc4c(F)cc(Cl)cc4F)cc(N4CCCC4=O)c32)nc1` [TP-020n] had a % of control of 100%.

Turning to `N#Cc1cccc(-c2c[nH]c3ncnc(N4CCOCC4)c23)c1`, the % of control in test [4] was 69%; in [5], 80%.

On to `CCC(=O)N1CC[C@H](Nc2ncnc3c2CN(c2cnc(OC)c(C(F)(F)F)c2)CC3)C1` [LENIOLISIB], for which, in [6], the IC50 is > 30 µM.

As to `CC[C@@H]1[C@H](F)C(=O)N[C@@H]1COc1nccc2cc(C(N)=O)c(OC)cc12` [ZIMLOVISERTIB], the % of inhibition in [7] (at 0.01 µM) was -4.2%; in [7] (at 0.04 µM), 1.9%; in [7] (at 0.2 µM) it was 21.5%; in test [7] (at 1 µM), 3.6%; in test [7] (at 5 µM), 23.9%.

As to `CCN(CC)CCCCNc1ncc2cc(-c3cc(OC)cc(OC)c3)c(NC(=O)NC(C)(C)C)nc2n1`, the % of control in test [8] and in [9] was 100% in each case.

With `COc1cc(Nc2nc(C)cc(-c3cnn4nc(OC)ccc34)n2)cc(C(F)(F)F)c1`, in test [10], the % of control amounted to 66%.

`C=CC(=O)Nc1cc(-n2c(=O)ccc3cnc4ccc(-c5ccc(NS(C)(=O)=O)cc5)cc4c32)ccc1C`: the % of control in [11] (at 1 µM) and in [11] (at 10 µM) was 100% each time.

Compound `O[C@H]1CC[C@H](Nc2ncc3nc(Nc4c(F)cc(F)cc4F)n([C@H]4CCOC4)c3n2)CC1` gave a % of control in test [12] of 90%.

For the compound `COCC(=O)NC/C=C/c1ccc2ncnc(Nc3ccc(Oc4ccc(C)nc4)c(C)c3)c2c1` [CP-724714], the % of control in test [13] turned out to be 17%.

One may read the IC50 as the concentration needed to halve the response being measured.
